The results in this text go back to patent US20080091140A1, “Cardiac Reperfusion Methods and Devices” (priority 2006, published 2008).

What all share (assay type): in vivo, Female juvenile domestic swine
One test has as its system Caspase 3. As to the kind of experiment: Western blotting of infarct border area: Caspase 3. The conditions noted are these: infarct border area after 2 h reperfusion, p=0.007 vs saline. An excerpt: Interventional Coronary and Surgical Procedures: A 6F Hockey stick guide catheter cannulated the left main coronary artery. The TGT wire, flushed with heparin, was positioned in the distal left anterior descending (LAD) artery. After a midline sternotomy acute regional myocardial ischemia was induced by occluding the mid portion of the LAD with a surgical suture. Fluoroscopy ensured the suture was above the infusion ports of the TGT wire with distal TIMI 0 flow. Lidocaine was given as a bolus and infusion at the onset of ischemia and for the remainder of the experiment. TGT injection was performed at the end of a 30 minute ischemic period after which the suture was removed to allow reperfusion. Restoration of TIMI 3 flow was documented by cine-angiography. Animals were sacrificed after 2 hours of reperfusion and the hearts were harvested for immunohistochemistry. Western Blotting: After cardiac harvest the infarct border area was immediately frozen in liquid nitrogen. […] Supernatant protein concentration was measured using a BCA assay kit (Pierce Laboratories). […] After 3 TBST washings the immunocomplexes were developed using an enhanced HPO/luminol chemiluminescence reaction, and recorded photographically (Hyper film ECL; Amersham) by 10 s to 3 min exposure. […] Quantification was performed using scanning densitometry with image J software.

Test [1] deals with acute regional myocardial ischemia and reperfusion (LAD occlusion). As to the kind of experiment: Hemodynamic assessment (rate pressure product) in swine LAD ischemia-reperfusion with Trans Guide wire Therapy. The conditions noted are these: for rate pressure product (RPP), Pre-sacrifice: after 2 h reperfusion, chloramphenicol 10 mg TGT plus 40 mg/Kg IV just prior to reperfusion, p=0.02 vs saline. The procedure: (§1) Methods: Female juvenile pigs (n=14) were used. All animals received 250 mg of aspirin and 100 U/Kg of heparin IV. Tying the mid Left Anterior Descending Artery (“LAD”) after distal TGT (Trans Guide wire Therapy) wire placement induced acute myocardial ischemia. The TGT system consisted of a 0.014 inch nitinol torquable guide wire and removable stopcock. The distal 30 mm tip was flexible and radio-opaque. Immediately proximal to the tip were delivery holes to facilitate TGT delivery. TGT was delivered after 30 minutes of ischemia. The distal coronary vascular bed was visualized by injection with radiographic contrast (n=2) and Evans blue (n=2). […] Suture removal allowed 2 hours of reperfusion prior to sacrifice. Hemodynamics expressed as the heart rate blood pressure product (RPP) was assessed continuously. Echocardiographic LV ejection fraction (LVEF) was measured at baseline, end of ischemia (pre-TGT) and pre-sacrifice. Device success was defined as successful TGT delivery.
Animal Preparation: Female juvenile domestic swine, weight 30-50 kg, were studied. […] Anaesthesia was induced with an intramuscular injection of ketamine (20 mg/kg) followed by inhaled isoflurane (0.5-2.0%). After general anaesthesia the femoral artery was cannulated. A pulmonary artery cannula was positioned via the right internal jugular vein. All animals received 250 mg of IV aspirin and 100 U/Kg units of heparin intravenously to achieve an ACT above 250 s.
(§2) Interventional Coronary and Surgical Procedures: A 6F Hockey stick guide catheter cannulated the left main coronary artery. The TGT wire, flushed with heparin, was positioned in the distal left anterior descending (LAD) artery. After a midline sternotomy acute regional myocardial ischemia was induced by occluding the mid portion of the LAD with a surgical suture. Fluoroscopy ensured the suture was above the infusion ports of the TGT wire with distal TIMI 0 flow. Lidocaine was given as a bolus and infusion at the onset of ischemia and for the remainder of the experiment. TGT injection was performed at the end of a 30 minute ischemic period after which the suture was removed to allow reperfusion. Restoration of TIMI 3 flow was documented by cine-angiography. Animals were sacrificed after 2 hours of reperfusion and the hearts were harvested for immunohistochemistry.
Hemodynamic Assessment: There was continuous measurement of hemodynamic parameters. Cardiac output was measured immediately before and after ischemia and pre-sacrifice. Hemodynamic stability and contractility were supported medically by IV dopamine, and epinephrine to maintain MAP above 50 mmg. Boluses of atropine (1 mg) and lidocaine (100 mg) were given as appropriate for treatment of arrhythmias. […] Each administration of these drugs was recorded as 1 arbitrary unit. […]

Test [2] shares this test system. As to the kind of experiment: Echocardiographic LV ejection fraction.
Test [3] shares this test system. In words: Supportive drug therapy required during ischemia-reperfusion (arbitrary units). The conditions noted are these: chloramphenicol 10 mg TGT plus 40 mg/Kg IV. As to the method: as §1, §2
Hemodynamic Assessment: There was continuous measurement of hemodynamic parameters. Cardiac output was measured immediately before and after ischemia and pre-sacrifice. Hemodynamic stability and contractility were supported medically by IV dopamine, and epinephrine to maintain MAP above 50 mmg. Boluses of atropine (1 mg) and lidocaine (100 mg) were given as appropriate for treatment of arrhythmias. IV calcium and bicarbonate were given in appropriate doses during cardiopulmonary resuscitation. Each administration of these drugs was recorded as 1 arbitrary unit.
The latter was prepared as 10 mg in 0.5 cc of saline for TGT in addition to 40 mg/Kg IV. Injections were performed just prior to reperfusion.

A further test concerns apoptosis. As to the kind of experiment: TUNEL staining for apoptosis in heart tissue sections. The conditions noted are these: heart tissue after 2 h reperfusion; non-discriminatory vs saline.
For test [4], the system named is acute regional myocardial ischemia and reperfusion (LAD occlusion). In words: Survival of the reperfusion period. The conditions noted are these: of 5 chloramphenicol TGT treated animals, to sacrifice at 2 h. The procedure:
as §1
Interventional Coronary and Surgical Procedures: A 6F Hockey stick guide catheter cannulated the left main coronary artery. The TGT wire, flushed with heparin, was positioned in the distal left anterior descending (LAD) artery. After a midline sternotomy acute regional myocardial ischemia was induced by occluding the mid portion of the LAD with a surgical suture. […]

The mark [5] stands for this setting: each administration recorded as 1 arbitrary unit, group sum.

Structures are written as SMILES. Marks after values point to notes of the source that are not given here.

Consider `O=C(N[C@H](CO)[C@H](O)c1ccc([N+](=O)[O-])cc1)C(Cl)Cl` [chloramphenicol], for which the “caspase-3 band intensity by densitometry” value in the test on Caspase 3 is on record as 346±110. Also, the “rate pressure product (RPP), Pre-sacrifice” value in test [1] is given as 3720.0 (+/−510.2). In test [1] (listed as Chloramphenicol), the “rate pressure product (RPP), Pre-sacrifice” value is on record as 3720.0 +/− 510.2*. The “rate pressure product (RPP), Baseline” value in test [1] (baseline, before ischemia and before TGT, chloramphenicol TGT group (n=5)) is 3980.8 +/− 594.5. Also, the “rate pressure product (RPP), End of ischemia” value in test [1] (end of 30 min ischemia, pre-TGT, chloramphenicol TGT group (n=5)) was 2969.5 +/− 687.2. Besides, the “LV ejection fraction, end of ischemia” value in test [2] (after 30 minute ischemia, pre-TGT, chloramphenicol TGT group) is given as 27.3%+/−3.8. For the same compound, the “LV ejection fraction, pre-sacrifice (after reperfusion)” value in test [2] (after 2 h reperfusion, chloramphenicol 10 mg TGT plus 40 mg/Kg IV, p<0.001 vs end of ischemia) worked out at 43.3%+/−11.4. In test [3] (setting [5]), the “supportive therapy: Atropine” value came to 2.5 arbitrary units, the “supportive therapy: Bicarbonate” value came out at 1 arbitrary units, the “supportive therapy: Dopamine” value came out at 1 arbitrary units and the “supportive therapy: Epinephrine” value stood at 1 arbitrary units. In addition, in test [3] (setting [5]), the “supportive therapy: Lidocaine” value came out at 4.5 arbitrary units and the “supportive therapy: calcium” value is given as 0 arbitrary units. For the same compound, the “supportive therapy / intravenous inotrope support, mean” value in test [3] (mean (+/-), p=0.028 vs saline) was 1.67 (+/−1.6) arbitrary units. In test [3] (sum over all support drugs), the “supportive therapy: Total” value is recorded as 10 arbitrary units. The TUNEL staining result with apoptosis is given as “weakly positive”. Also, the “animals that survived the period of reperfusion” value in test [4] was 5.
